Measured values from US9199975B2, “Biaryl imidazole derivatives for regulating CYP17” (Asana Biosciences, LLC, priority 2011, dated 2015).

Target: T1, human CYP17 (Homo sapiens, UniProt P05093)
T1 sequence (P05093 1-508): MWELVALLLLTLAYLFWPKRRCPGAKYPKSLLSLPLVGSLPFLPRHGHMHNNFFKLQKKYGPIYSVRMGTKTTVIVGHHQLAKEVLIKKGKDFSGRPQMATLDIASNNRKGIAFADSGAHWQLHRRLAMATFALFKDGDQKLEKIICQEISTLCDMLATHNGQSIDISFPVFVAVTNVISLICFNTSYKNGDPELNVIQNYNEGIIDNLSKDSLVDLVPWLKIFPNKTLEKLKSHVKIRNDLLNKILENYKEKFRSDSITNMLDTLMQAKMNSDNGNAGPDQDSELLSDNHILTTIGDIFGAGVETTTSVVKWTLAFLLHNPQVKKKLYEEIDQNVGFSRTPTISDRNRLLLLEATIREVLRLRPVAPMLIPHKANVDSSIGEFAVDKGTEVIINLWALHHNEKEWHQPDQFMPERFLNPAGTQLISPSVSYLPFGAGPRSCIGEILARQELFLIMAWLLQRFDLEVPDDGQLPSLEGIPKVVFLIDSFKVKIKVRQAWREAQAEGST
Test: Cell-based human CYP17 inhibition assay, H295R adrenocortical carcinoma cells
Set-up: H295R Adrenocortical carcinoma cells [NCI-H295A, ATCC Number CRL-2128, American Type Culture Collection; host or cells: H295R adrenocortical carcinoma cells
Details: 16 hours at 37° C., read-out: CYP17 (human H295R adrenal cells)
Procedure: Cell-Based Human CYP17 Inhibition Assay
A. Materials • 1. H295R Adrenocortical Carcinoma Cells and Growth Media: The media for the H295R Adrenocortical carcinoma cells [NCI-H295A, ATCC Number CRL-2128, American Type Culture Collection, Manassas, Va., US] (500 mL) was a DMEM:F12 Mix 1:1 with 5% […] BD Nu Serum; 1% (5 mL) ITS+Premix [BD Biosciences] and 1% Penstrep. • 2. LNCap-CYP17 Cells and Growth Media: Full length hCYP17a1 gene (NCBI Reference Sequence: NM_000102.3) was cloned in pCDNA3.1(+) vector between HindIII and XhoI site. The pCDNA3.1(+) vector contains the Neomycin resistance gene and was used for selection of stable cell line. The hCYP17a1 containing pCDNA3.1(+) was transfected into LNCap cells to create the LNCap-CYP17 cell line. The media for the LNCaP-CYP17 cells was RPMI 1640, 10% FBS, 1% PenStrep, Geneticin 400 μg/mL.
The H295R cells or LNCaP-hCYP17 cells were subcultured and 30,000 cells per well were seeded in a poly-d lysine plate and incubated overnight at 37° C. The next day the media was removed and 200 µL of fresh media with ^3H3-17α-hydroxy-pregnenolone (1:1000) was added. 50 μL of serially diluted compounds from a 5× plate (5 times the final desired concentration) was added. The working concentration range for active, new compounds started from a high concentration of […] with 3-fold serial dilutions generating up to 10 concentrations. The serial dilution in the 100× plate (in DMSO) and the stamping of a 5× plate (in media) from the 100× plate were carried out using a TECAN liquid handling device.
The plates were incubated overnight (16 hours) at 37° C. After 16 hours, the media was removed (approximately 220 μL) and an equal amount of chloroform was added, mixed and incubated for 30 minutes at 4 degrees. The plate was centrifuged at 4000 rpm for 15 minutes at 4° C., following which the top aqueous layer was carefully removed and added into a new deep well plate. An equal volume of activated 5% charcoal was added, mixed and incubated for 30 minutes at 4° C. The plate was then centrifuged at 4000 rpm for 15 minutes at 4° C. and the top layer carefully separated, avoiding any charcoal contamination, and placed in a white, clear bottom plate (plate cat #3610, Corning Life Sciences). An equal volume of Microscint™ 40 was added and mixed well. Following the incubation for 30 minutes, readings for the radiotracer were taken using a Microbeta® trilux.

Compared with COc1ccc(-c2cccc(C(C)n3ccnc3)n2)cc1 (stereo not shown) [Example 42, 2-(1-Imidazol-1-yl-ethyl)-6-(4-methoxy-phenyl)-pyridine], COc1ccc(-c2cccnc2C(C)n2ccnc2)cc1 (stereo not shown) [Example 66, 2-(1-(1H-imidazol-1-yl)ethyl)-3-(4-methoxyphenyl)-pyridine] is lower in IC50: 50 to 200 nM for the first, < 50 nM for the second.

First: CCC(c1ccc(-c2ccc(NC(C)=O)cc2)cn1)n1ccnc1 (stereo not shown) [Example 43, N-{4-[6-(1-Imidazol-1-yl-propyl)-pyridin-3-yl]-phenyl}-acetamide]
Second: CC(=O)Nc1ccc(-c2ccc(C(C)n3ccnc3)nc2)cc1 (stereo not shown) [Example 64, N-{4-[6-(1-Imidazol-1-yl-ethyl)-pyridin-3-yl]-phenyl}-acetamide]
The IC50 of the first is lower: 50 to 200 nM for the first, 201 to 10000 nM for the second.

First: CCC(c1cnc(-c2cn[nH]c2)s1)n1ccnc1 (stereo not shown) [Example 44, 5-(1-Imidazol-1-yl-propyl)-2-(1H-pyrazol-4-yl)-thiazole]
Second: CCC(c1cnc(-c2ccc(=O)[nH]c2)s1)n1ccnc1 (stereo not shown) [Example 59, 5-[5-(1-Imidazol-1-yl-propyl)-thiazol-2-yl]-1H-pyridin-2-one]
The IC50 of the first is lower: 50 to 200 nM for the first, 201 to 10000 nM for the second. The first is the more potent here.

First: CCC(c1ccc(-c2cccc(F)c2)cn1)n1ccnc1 (stereo not shown) [Example 45, 5-(3-Fluoro-phenyl)-2-(1-imidazol-1-yl-propyl)-pyridine]
Second: CC(c1ccc(-c2cccc(F)c2)cn1)n1ccnc1 (stereo not shown) [Example 57, 5-(3-Fluoro-phenyl)-2-(1-imidazol-1-yl-ethyl)-pyridine]
The IC50 of the first is lower: < 50 nM for the first, 50 to 200 nM for the second. The first is the more potent here.

Compared with CCc1cc(F)ccc1-c1ncc(C(CC)n2ccnc2)s1 (stereo not shown) [Example 46, 2-(2-Ethyl-4-fluoro-phenyl)-5-(1-imidazol-1-yl-propyl)-thiazole], CCC(c1cnc(-c2ccc(OC)nc2)s1)n1ccnc1 (stereo not shown) [Example 51, 5-[5-(1-Imidazol-1-yl-propyl)-thiazol-2-yl]-2-methoxy-pyridine] is higher in IC50: < 50 nM for the first, 50 to 200 nM for the second. The first is the more potent here.

CCC(c1ccc(-c2ccc(OC)cc2)cn1)n1ccnc1 (stereo not shown) [Example 47, 2-(1-Imidazol-1-yl-propyl)-5-(4-methoxy-phenyl)-pyridine] and COc1ccc(-c2ccc(C(CC(C)C)n3ccnc3)nc2)cc1 (stereo not shown) [Example 62, 2-(1-Imidazol-1-yl-3-methyl-butyl)-5-(4-methoxy-phenyl)-pyridine] fall in the same range of IC50: 50 to 200 nM for the first, 50 to 200 nM for the second.

Compared with CCC(c1ccc(-c2ccccc2F)cn1)n1ccnc1 (stereo not shown) [Example 48, 5-(2-Fluoro-phenyl)-2-(1-imidazol-1-yl-propyl)-pyridine], CCC(c1ccc(-c2ccccc2OC)cn1)n1ccnc1 (stereo not shown) [Example 56, 2-(1-Imidazol-1-yl-propyl)-5-(2-methoxy-phenyl)-pyridine] is higher in IC50: < 50 nM for the first, 50 to 200 nM for the second. The first is the more potent here.

First: CC(c1ccc(-c2ccc(O)cc2)s1)n1ccnc1 (stereo not shown) [Example 49, 4-[5-(1-Imidazol-1-yl-ethyl)-thiophen-2-yl]-phenol]
Second: CCC(c1cnc(-c2ccc(O)cc2)s1)n1ccnc1 (stereo not shown) [Example 60, 4-[5-(1-Imidazol-1-yl-propyl)-thiazol-2-yl]-phenol]
The IC50 of the first is lower: < 50 nM for the first, 50 to 200 nM for the second. The first is the more potent here.

First: CCC(c1ccc(-c2ccc(O)cc2)cn1)n1ccnc1 (stereo not shown) [Example 50, 4-[6-(1-Imidazol-1-yl-propyl)-pyridin-3-yl]-phenol]
Second: CCC(c1ccc(-c2cccc(C#N)c2)cn1)n1ccnc1 (stereo not shown) [Example 53, 3-[6-(1-Imidazol-1-yl-propyl)-pyridin-3-yl]-benzonitrile]
The IC50 of the first is lower: < 50 nM for the first, 50 to 200 nM for the second.

CC(C)(c1ccc(-c2ccc(O)cc2)cn1)n1ccnc1 [Example 52, 4-[6-(1-Imidazol-1-yl-1-methyl-ethyl)-pyridin-3-yl]-phenol] and COc1ccc(-c2ccc(C(C)(C)n3ccnc3)nc2)cc1 [Example 61, 2-(1-Imidazol-1-yl-1-methyl-ethyl)-5-(4-methoxy-phenyl)-pyridine] fall in the same range of IC50: 50 to 200 nM for the first, 50 to 200 nM for the second.

CC(c1ccc(-c2ccc(F)cc2)nc1)n1ccnc1 (stereo not shown) [Example 54, 2-(4-Fluoro-phenyl)-5-(1-imidazol-1-yl-ethyl)-pyridine] and CC(c1cnc(-c2ccc(C(=O)O)cc2)s1)n1ccnc1 (stereo not shown) [Example 65, 4-[5-(1-Imidazol-1-yl-ethyl)-thiazol-2-yl]-benzoic acid] fall in the same range of IC50: 201 to 10000 nM for the first, 201 to 10000 nM for the second.

Compared with CCOC(=O)c1ccc(-c2ncc(C(C)n3ccnc3)s2)cc1 (stereo not shown) [Example 55, 4-[5-(1-Imidazol-1-yl-ethyl)-thiazol-2-yl]-benzoic acid ethyl ester], CC(c1cnc(-c2ccc(=O)[nH]c2)s1)n1ccnc1 (stereo not shown) [Example 63, 5-[5-(1-Imidazol-1-yl-ethyl)-thiazol-2-yl]-1H-pyridin-2-one] is higher in IC50: 50 to 200 nM for the first, 201 to 10000 nM for the second.

In the case of COc1ccc(-c2ncc(C(C)n3ccnc3)s2)cn1 (stereo not shown) [Example 58, 5-[5-(1-Imidazol-1-yl-ethyl)-thiazol-2-yl]-2-methoxy-pyridine], the IC50 is reported as 50 to 200 nM.
